Each compound was assayed against DCN1 (Homo sapiens (Human), UniProt Q96GG9) (assay: TR-FRET binding assay (biotin-DCN1 / Ac-UBE2M12-AlexaFluor488)). Conditions: mean ± SD (n); read-out: DCN1_TRFRET Mean EC50.
Description: • IC50 values were generated using our TR-FRET binding assay and are represented as the mean of three replicates with errors reported as the standard deviation.
The assay cocktail was then incubated for 1 h at room temperature and distributed using a WellMate instrument (Matrix). Compounds to be screened were added to assay plates from DMSO stock solutions by pin transfer using 50SS pins (V&P Scientific). […] All compounds were tested in triplicate or more.

DCN1, sequence (Q96GG9 whole entry): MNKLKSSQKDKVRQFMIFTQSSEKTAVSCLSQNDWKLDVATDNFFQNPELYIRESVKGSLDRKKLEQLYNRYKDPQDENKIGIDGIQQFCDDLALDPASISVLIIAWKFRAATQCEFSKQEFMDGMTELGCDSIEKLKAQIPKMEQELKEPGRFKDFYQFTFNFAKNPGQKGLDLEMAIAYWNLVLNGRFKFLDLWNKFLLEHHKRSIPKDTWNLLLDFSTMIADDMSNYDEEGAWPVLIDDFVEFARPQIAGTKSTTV

`CCN1C(=O)[C@@H](NC(=O)c2cccc(C(F)(F)F)c2)[C@@H](c2cncs2)c2c(C)nn(-c3ccccc3)c21` [RG-0014005, N-[(4S,5S)-7-ethyl-3-methyl-6-oxo-1-phenyl-4-(1,3-thiazol-5-yl)-1H,4H,5H,6H,7H-pyrazolo[3,4-b]pyridin-5-yl]-3-(trifluoromethyl)benzamide] and `CCN1C(=O)[C@@H](NC(=O)c2cccc(C(F)(F)F)c2)[C@@H](c2cccs2)c2c(C)nn(-c3ccccc3)c21` [RG-0013988, N-[(4S,5S)-7-ethyl-3-methyl-6-oxo-1-phenyl-4-(thiophen-2-yl)-1H,4H,5H,6H,7H-pyrazolo[3,4-b]pyridin-5-yl]-3-(trifluoromethyl)benzamide] are within 1.5-fold of each other in EC50: 1920 ± 75.2 nM for the first, 1330 ± 50.7 nM for the second.

`CC/C=C/C(=O)N[C@@H]1C(=O)N(CC)c2c(c(C)nn2-c2ccccc2)[C@@H]1c1ccc(F)cc1` [RG-0014157, (2E)-N-[(4S,5S)-7-ethyl-4-(4-fluorophenyl)-3-methyl-6-oxo-1-phenyl-1H,4H,5H,6H,7H-pyrazolo[3,4-b]pyridin-5-yl]pent-2-enamide] and `CCN1C(=O)[C@@H](N)[C@@H](c2ccc(F)cc2)c2c(C)nn(-c3ccccc3)c21` [RG-0013837, (4S,5S)-5-amino-7-ethyl-4-(4-fluorophenyl)-3-methyl-1-phenyl-1H,4H,5H,6H,7H-pyrazolo[3,4-b]pyridin-6-one] cannot be ordered by EC50: over 30700 nM for the first, over 36500 nM for the second.

Compared with `CCN1C(=O)[C@@H](NC(=O)c2cccc(C(F)(F)F)c2)[C@@H](c2ccc(F)c(C(F)(F)F)c2)c2c(C)nn(-c3ccccc3)c21` [RG-0013990, N-[(4S,5S)-7-ethyl-4-[4-fluoro-3-(trifluoromethyl)phenyl]-3-methyl-6-oxo-1-phenyl-1H,4H,5H,6H,7H-pyrazolo[3,4-b]pyridin-5-yl]-3-(trifluoromethyl)benzamide], `CCN1C(=O)[C@@H](NC(=O)c2cccc(C(F)(F)F)c2)[C@@H](c2ccc(F)c(OC)c2)c2c(C)nn(-c3ccccc3)c21` [RG-0013996, N-[(4S,5S)-7-ethyl-4-(4-fluoro-3-methoxyphenyl)-3-methyl-6-oxo-1-phenyl-1H,4H,5H,6H,7H-pyrazolo[3,4-b]pyridin-5-yl]-3-(trifluoromethyl)benzamide] is 3.8-fold lower in EC50: 4810 ± 152 nM for the first, 1270 ± 47 nM for the second.

Compared with `CCN1C(=O)[C@@H](NC(=O)c2cc(C)cc(F)c2)[C@@H](c2ccc(F)cc2)c2c(C)nn(-c3ccccc3)c21` [RG-0013053, N-[(4S,5S)-7-ethyl-4-(4-fluorophenyl)-3-methyl-6-oxo-1-phenyl-1H,4H,5H,6H,7H-pyrazolo[3,4-b]pyridin-5-yl]-3-fluoro-5-methylbenzamide], `CCN1C(=O)[C@@H](NC(=O)c2cccc(C)c2F)[C@@H](c2ccc(F)cc2)c2c(C)nn(-c3ccccc3)c21` [RG-0014165, N-[(4S,5S)-7-ethyl-4-(4-fluorophenyl)-3-methyl-6-oxo-1-phenyl-1H,4H,5H,6H,7H-pyrazolo[3,4-b]pyridin-5-yl]-2-fluoro-3-methylbenzamide] is 4.3-fold lower in EC50: 2330 ± 105 nM for the first, 541 ± 68.1 nM for the second. The second is the more potent here.

Compared with `CCN1C(=O)[C@@H](NC(=O)c2cccc(C(F)(F)F)c2)[C@@H](c2ccc(F)cc2)c2c(CN3CCC(C)CC3)nn(-c3ccccc3)c21` [RG-0014143, N-[(4S,5S)-7-ethyl-4-(4-fluorophenyl)-3-[(4-methylpiperidin-1-yl)methyl]-6-oxo-1-phenyl-1H,4H,5H,6H,7H-pyrazolo[3,4-b]pyridin-5-yl]-3-(trifluoromethyl)benzamide], `CCN1C(=O)[C@@H](NC(=O)c2cccc(C(F)(F)F)c2)[C@@H](c2ccc(F)cc2)c2c(CN3CCNCC3)nn(-c3ccccc3)c21` [RG-0014141, N-[(4S,5S)-7-ethyl-4-(4-fluorophenyl)-6-oxo-1-phenyl-3-[(piperazin-1-yl)methyl]-1H,4H,5H,6H,7H-pyrazolo[3,4-b]pyridin-5-yl]-3-(trifluoromethyl)benzamide] is 1.7-fold higher in EC50: 82.7 ± 7.69 nM for the first, 141 ± 7.56 nM for the second. The first is the more potent here.

First: COC(=O)CN1C(=O)[C@@H](NC(=O)c2cccc(C(F)(F)F)c2)[C@@H](c2ccc(F)cc2)c2c(C)nn(-c3ccccc3)c21 [RG-0013841, methyl 2-[(4S,5S)-4-(4-fluorophenyl)-3-methyl-6-oxo-1-phenyl-5-[3-(trifluoromethyl)benzamido]-1H,4H,5H,6H,7H-pyrazolo[3,4-b]pyridin-7-yl]acetate]
Second: COCN1C(=O)[C@@H](NC(=O)c2cccc(C)c2)[C@@H](c2ccc(F)cc2)c2c(C)nn(-c3ccccc3)c21 [RG-0008859, N-[(4S,5S)-4-(4-fluorophenyl)-7-(methoxymethyl)-3-methyl-6-oxo-1-phenyl-1H,4H,5H,6H,7H-pyrazolo[3,4-b]pyridin-5-yl]-3-methylbenzamide]
The EC50 of the first is 11-fold higher: 5540 ± 1080 nM for the first, 491 ± 25.5 nM for the second. The second is the more potent here.

First: CCN1C(=O)[C@@H](NC(=O)c2cccc(C)c2)[C@@H](c2ccc(F)cc2)c2c(CO)nn(-c3ccccc3)c21 [RG-0008880, N-[(4S,5S)-7-ethyl-4-(4-fluorophenyl)-3-(hydroxymethyl)-6-oxo-1-phenyl-1H,4H,5H,6H,7H-pyrazolo[3,4-b]pyridin-5-yl]-3-methylbenzamide]
Second: CC(=O)N1C(=O)[C@@H](NC(=O)c2cccc(C)c2)[C@@H](c2ccc(F)cc2)c2c(C)nn(-c3ccccc3)c21 [RG-0005656, N-[(4S,5S)-7-acetyl-4-(4-fluorophenyl)-3-methyl-6-oxo-1-phenyl-1H,4H,5H,6H,7H-pyrazolo[3,4-b]pyridin-5-yl]-3-methylbenzamide]
The EC50 of the first is 33-fold lower: 173 ± 29.7 nM for the first, 5640 ± 827 nM for the second. The first is the more potent here.

First: CCN1C(=O)[C@@H](NC(=O)c2cccc(C)c2)[C@@H](c2ccc(F)cc2)c2c(C)nn(C3CCCCC3)c21 [RG-0008877, N-[(4S,5S)-1-cyclohexyl-7-ethyl-4-(4-fluorophenyl)-3-methyl-6-oxo-1H,4H,5H,6H,7H-pyrazolo[3,4-b]pyridin-5-yl]-3-methylbenzamide]
Second: CCOC(=O)Cn1nc(C)c2c1N(CC)C(=O)[C@@H](NC(=O)c1cccc(C(F)(F)F)c1)[C@H]2c1ccc(F)cc1 [RG-0014038, ethyl 2-[(4S,5S)-7-ethyl-4-(4-fluorophenyl)-3-methyl-6-oxo-5-[3-(trifluoromethyl)benzamido]-1H,4H,5H,6H,7H-pyrazolo[3,4-b]pyridin-1-yl]acetate]
The EC50 of the first is 4.2-fold lower: 835 ± 34.8 nM for the first, 3530 ± 458 nM for the second. The first is the more potent here.

`CCN1C(=O)[C@@H](NC(=O)c2cccc(C(F)(F)F)c2)[C@@H](c2ccc(F)cc2)c2c(CNCCN)nn(-c3ccccc3)c21` [RG-0014149, N-[(4S,5S)-3-{[(2-aminoethyl)amino]methyl}-7-ethyl-4-(4-fluorophenyl)-6-oxo-1-phenyl-1H,4H,5H,6H,7H-pyrazolo[3,4-b]pyridin-5-yl]-3-(trifluoromethyl)benzamide] and `CCN1C(=O)[C@@H](NC(=O)c2cccc(C(F)(F)F)c2)[C@@H](c2ccc(F)nc2)c2c(CN)nn(-c3ccccc3)c21` [RG-0014006, N-[(4S,5S)-3-(aminomethyl)-7-ethyl-4-(6-fluoropyridin-3-yl)-6-oxo-1-phenyl-1H,4H,5H,6H,7H-pyrazolo[3,4-b]pyridin-5-yl]-3-(trifluoromethyl)benzamide] are within error of each other in EC50: 126 ± 12.1 nM for the first, 135 ± 7 nM for the second.

`CCN1C(=O)[C@@H](NC(=O)c2cccc(C)c2)[C@@H](C(C)C)c2c(C)nn(-c3ccccc3)c21` [RG-0008876, N-[(4S,5S)-7-ethyl-3-methyl-6-oxo-1-phenyl-4-(propan-2-yl)-1H,4H,5H,6H,7H-pyrazolo[3,4-b]pyridin-5-yl]-3-methylbenzamide] and `CCN1C(=O)[C@@H](N(CC)C(=O)c2cccc(C)c2)[C@@H](c2ccc(F)cc2)c2c(C)nn(-c3ccccc3)c21` [RG-0009505, N-ethyl-N-[(4S,5S)-7-ethyl-4-(4-fluorophenyl)-3-methyl-6-oxo-1-phenyl-1H,4H,5H,6H,7H-pyrazolo[3,4-b]pyridin-5-yl]-3-methylbenzamide] are within 1.5-fold of each other in EC50: 1750 ± 165 nM for the first, 2620 ± 404 nM for the second.

Source: US12409171B2, “Pharmaceutically active pyrazolo-pyridone modulators of DCN1/2-mediated cullin neddylation” (UNIVERSITY OF KENTUCKY RESEARCH FOUNDATION, priority 2019, dated 2025)
